Results: article PMC11625940, “An Improved Test Method for Assaying the Inhibition of Bioflavonoids on Xanthine Oxidase Activity in vitro” (ChemistryOpen, 2024)

Key:
Xanthine oxidase (XOD) [1] = target: T1, Xanthine oxidase (XOD); assay: UV assay of uric acid formation at […] nm, test method C (inhibitor added to running reaction after […] min, superoxide present); type: biochemical; details: xanthine substrate, sodium pyrophosphate buffer pH 7.5, 37 °C, unreliable: compound may be oxidised to myricetin by superoxide, no IC50 reached in test methods A and B
T1 construct: gene XDH; described in the introduction as a 290 kDa homodimer of mammals; the high specific activity could also fit a microbial enzyme

Xanthine oxidase (XOD) [2] = target: T1, Xanthine oxidase (XOD); assay: UV assay of uric acid formation at […] nm, test method A (inhibitor preincubated with enzyme, started by xanthine); type: biochemical; details: xanthine substrate, sodium pyrophosphate buffer pH 7.5, 37 °C, other methods (B; C, inhibitor added to the running reaction with superoxide) also printed in the row, read-out: IC50 ^[a]/μmol L^-1

Structure (SMILES) | IC50 ^[c]/μmol L^-1 (Xanthine oxidase (XOD) [1]) | IC50 (Xanthine oxidase (XOD) [2])
O=C1c2c(O)cc(O)cc2O[C@H](c2cc(O)c(O)c(O)c2)[C@H]1O [Dihydromyricetin] | 20.96 µM | –
O=c1cc(-c2ccc(O)c(O)c2)oc2cc(O)cc(O)c12 [Luteolin] | – | 4.34 µM
O=c1c(O)c(-c2cc(O)c(O)c(O)c2)oc2cc(O)cc(O)c12 [Myricetin] | – | 5 µM
